System: hippocampal SC-CA1 synapses
Assay: Tetanus-induced LTP (fEPSP), hippocampal slices
Format: cell-based, mouse
Settings: 4 uM
Protocol: For electrophysiological experiments, sagittal hippocampal slices (400 uM thick for extracellular, 300 uM thick for intracellular recordings) of Shank2^-/- mice (or ZnT3^-/- mice) and their wild-type littermates were prepared using a vibratome (Leica VT1200) in ice-cold dissection buffer containing (in mM) 212 sucrose, 25 NaHCO3, 5 KCl, 1.25 NaH2PO4, 0.5 CaCl2, 3.5 MgSO4, 10 D-glucose, 1.25 L-ascorbic acid, and 2 Na-pyruvate bubbled with 95% 02/5% CO2. CA3 was removed to prevent epileptiform activity. Slices were restored for 1 hour in 32° C. in a normal artificial CSF (ACSF) (In units of mM: 124 NaCl, 2.5 kCl, 1 NaH2PO4, 25 NaHCO3, 10 glucose, 2 CaC12, 2 Mg504 oxidized by 95% 02/5% CO2) For the recording, a single slice was moved to and maintained in submerged-type chamber at 28° C., continuously perfused with ACSF (2 mL/minute) saturated with 95% 02/5% CO2. Stimulation and recording pipettes were pulled from borosilicate glass capillaries (Harvard Apparatus) using a micropipette electrode puller ([…]). For extracellular recordings, mouse hippocampal slices at the age of postnatal day 21 to 35 were used. Field excitatory postsynaptic potentials (fEPSPs) were recorded in the stratum radiatum of the hippocampal CA1 region using pipettes filled with ACSF (1 MΩ). fEPSP was amplified (Multiclamp 700B, Molecular Devices), and digitized (Digidata 1440A, Molecular Devices) for measurements. The Schaffer collateral pathway was stimulated every 20 seconds with pipettes filled with ACSF (0.3 to 0.5 MΩ). The stimulation intensity was adjusted to yield a half-maximal response, and three successive responses were averaged and expressed relative to the normalized baseline. To induce LTP, high frequency stimulation (100 Hz, 1 s) was applied after a stable baseline was acquired.

Oc1c(I)cc(Cl)c2cccnc12 [clioquinol, 5-Chloro-7-Iodo-8-Hydroxyquinoline]
Tetanus (100 Hz)-induced LTP (Shank2^−/− SC-CA1 synapses): reversed the reduced tetanus-induced long-term potentiation
Tetanus (100 Hz)-induced LTP (Shank2^−/− SC-CA1 synapses, listed as CQ): restored LTP
Tetanus (100 Hz)-induced LTP (wild-type synapses): had no effect on LTP

From patent publication US20160120858A1 (ACADEMIA SINICA, priority 2014, published 2016)
